From ChEMBL document CHEMBL1138630, “Antioxidant activities of a new lignan and a neolignan from Saururus chinensis” (Bioorg Med Chem Lett, 2004)

Tests used:
Cell line [1] = experiment: Effect of compound (1 uM) on macrophage-mediated oxidation of LDL was measured by MDA levels in the presence of Cu2+; assay type: functional, Homo sapiens
Cell line [2] = experiment: Concentration required for inhibition of Cu+2-induced peroxidation in low-density lipoprotein of human; assay type: functional, cell-based
Cell line [3] = experiment: Antioxidant activity on copper-induced peroxidation in low-density lipoprotein at 10 uM; expressed as area of absorbance/mm; assay type: functional, Homo sapiens
Cell line [4] = experiment: Antioxidant activity on copper-induced peroxidation in low-density lipoprotein at 20 uM; expressed as area of absorbance/mm; assay type: functional, Homo sapiens
Cell line [5] = experiment: Effect of compound (0.1 uM) on macrophage-mediated oxidation of LDL was measured by MDA levels in the presence of Cu2+; assay type: functional, Homo sapiens

| IC50 (Cell line [2]) [µM] | SMILES | Activity (Cell line [1]) [nmol/mg LDL] | Activity (Cell line [3]) [AU/mm] | Activity (Cell line [4]) [AU/mm] | Activity (Cell line [5]) [nmol/mg LDL] |
| --- | --- | --- | --- | --- | --- |
| 2.8 | CC(C)(Sc1cc(C(C)(C)C)c(O)c(C(C)(C)C)c1)Sc1cc(C(C)(C)C)c(O)c(C(C)(C)C)c1 [PROBUCOL] | 412.6 | 4.32 | 6.7 | – |
| 3.3 | COc1ccc(C[C@H](C)[C@@H](C)Cc2cc(OC)c(O)cc2O)cc1O | – | 6.45 | 7.66 | 358.9 |
| 3.8 | C/C=C/c1ccc(O[C@@H](C)[C@@H](O)c2ccc(O)c(OC)c2)c(OC)c1 [MACHILIN D] | – | 5.81 | 6.78 | 118.3 |
